Measurements as given in paper PMC3826612 (Talanta, 2013).

Target: acetylcholinesterase from Electrophorus electricus (eelAChE) immobilized on magnetic beads (Electrophorus electricus, UniProt O42275)
Assay: Ligand fishing assay using eelAChE-MB
Assay type: binding
Conditions: 100 nM reference compounds, individually and as a mixture

Sequence of acetylcholinesterase from Electrophorus electricus (eelAChE) immobilized on magnetic beads (O42275 24-633): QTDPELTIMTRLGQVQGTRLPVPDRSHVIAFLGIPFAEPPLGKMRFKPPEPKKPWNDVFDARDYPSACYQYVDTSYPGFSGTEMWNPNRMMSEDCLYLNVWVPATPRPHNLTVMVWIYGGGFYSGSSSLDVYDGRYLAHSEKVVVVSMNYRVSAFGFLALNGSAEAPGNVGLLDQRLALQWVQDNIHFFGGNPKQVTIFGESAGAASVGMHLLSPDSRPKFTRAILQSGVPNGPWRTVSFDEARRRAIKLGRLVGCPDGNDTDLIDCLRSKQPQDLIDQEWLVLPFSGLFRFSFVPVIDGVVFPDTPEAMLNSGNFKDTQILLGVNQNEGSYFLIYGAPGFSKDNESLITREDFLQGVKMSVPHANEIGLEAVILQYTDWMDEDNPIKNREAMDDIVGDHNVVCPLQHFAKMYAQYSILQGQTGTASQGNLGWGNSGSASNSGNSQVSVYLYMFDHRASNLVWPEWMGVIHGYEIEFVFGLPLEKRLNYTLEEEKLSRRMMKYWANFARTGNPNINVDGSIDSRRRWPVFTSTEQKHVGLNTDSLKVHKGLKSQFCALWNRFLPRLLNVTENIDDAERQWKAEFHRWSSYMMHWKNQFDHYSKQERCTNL

Structure (SMILES) | Presence in supernatants S-1 (unbound) and S-2 (eluted)
CNC1(c2ccccc2Cl)CCCCC1=O (centres unmarked) [ketamine] | only present in S-1
CC(CCc1ccccc1)NCC(O)c1ccc(O)c(C(N)=O)c1 (centres unmarked) [labetalol] | only present in S-1
